Measured values published in the NIST ThermoML archive (doi:10.1021/je8009545).
± gives the expanded uncertainty stated by the source.

How the values were obtained:
[1] = xn = mol fraction of the nth substance listed; conditions: Gas, x2 = 0; for mass density: Gas pipette; for viscosity: Oscillating disk viscometry
[2] = Gas; for mass density: Gas pipette; for viscosity: Oscillating disk viscometry

`N#N` [nitrogen] + COC gave a mass density ([1]; 298.15 K, 101 kPa) of 1.178 ± 0.072 kg/m3, a viscosity ([1]; 298.15 K, 101 kPa) of 0.01786 ± 0.00057 mPa·s and a mass density ([1]; 298.15 K, 240 kPa) of 2.833 ± 0.17 kg/m3. The viscosity ([1]; 298.15 K, 240 kPa) was 0.01788 ± 0.00057 mPa·s, the mass density ([1]; 298.15 K, 672 kPa) was 7.705 ± 0.46 kg/m3 and the viscosity ([1]; 298.15 K, 672 kPa) was 0.01794 ± 0.00057 mPa·s. The mass density ([1]; 323.15 K, 101 kPa) was 0.858 ± 0.053 kg/m3, the viscosity ([1]; 323.15 K, 101 kPa) was 0.01901 ± 0.0006 mPa·s and the mass density ([1]; 323.15 K, 290 kPa) was 3.114 ± 0.19 kg/m3. For the same compound, the viscosity ([1]; 323.15 K, 290 kPa) was 0.01904 ± 0.0006 mPa·s, the mass density ([1]; 323.15 K, 466 kPa) was 4.925 ± 0.3 kg/m3 and the viscosity ([1]; 323.15 K, 466 kPa) was 0.01906 ± 0.0006 mPa·s. The mass density ([1]; 323.15 K, 856 kPa) was 9.024 ± 0.54 kg/m3, the viscosity ([1]; 323.15 K, 856 kPa) was 0.01911 ± 0.0006 mPa·s and the mass density ([1]; 348.15 K, 101 kPa) was 0.761 ± 0.047 kg/m3. The viscosity ([1]; 348.15 K, 101 kPa) was 0.0201 ± 0.00062 mPa·s, the mass density ([1]; 348.15 K, 518 kPa) was 5.043 ± 0.3 kg/m3 and the viscosity ([1]; 348.15 K, 518 kPa) was 0.02016 ± 0.00062 mPa·s. It also gave a mass density ([1]; 348.15 K, 1010 kPa) of 9.8 ± 0.59 kg/m3, a viscosity ([1]; 348.15 K, 1010 kPa) of 0.02022 ± 0.00062 mPa·s and a mass density ([1]; 348.15 K, 2028 kPa) of 19.63 ± 1.2 kg/m3. It also gave a viscosity ([1]; 348.15 K, 2028 kPa) of 0.02037 ± 0.00063 mPa·s, a mass density ([1]; 373.15 K, 101 kPa) of 0.633 ± 0.039 kg/m3 and a viscosity ([1]; 373.15 K, 101 kPa) of 0.02116 ± 0.00065 mPa·s. For the same compound, the mass density ([1]; 373.15 K, 495 kPa) was 4.527 ± 0.27 kg/m3, the viscosity ([1]; 373.15 K, 495 kPa) was 0.02121 ± 0.00065 mPa·s and the mass density ([1]; 373.15 K, 1000 kPa) was 8.832 ± 0.53 kg/m3. For the same compound, the viscosity ([1]; 373.15 K, 1000 kPa) was 0.02126 ± 0.00065 mPa·s, the mass density ([1]; 373.15 K, 2006 kPa) was 18.01 ± 1.1 kg/m3 and the viscosity ([1]; 373.15 K, 2006 kPa) was 0.0214 ± 0.00065 mPa·s. For the same compound, the mass density ([1]; 373.15 K, 2930 kPa) was 26.15 ± 1.6 kg/m3, the viscosity ([1]; 373.15 K, 2930 kPa) was 0.02152 ± 0.00066 mPa·s and the mass density ([1]; 373.15 K, 3985 kPa) was 35.64 ± 2.1 kg/m3. The viscosity ([1]; 373.15 K, 3985 kPa) was 0.02168 ± 0.00066 mPa·s, the mass density ([1]; 373.15 K, 4966 kPa) was 44.7 ± 2.7 kg/m3 and the viscosity ([1]; 373.15 K, 4966 kPa) was 0.02184 ± 0.00066 mPa·s. The mass density ([1]; 398.15 K, 101 kPa) was 0.727 ± 0.045 kg/m3, the viscosity ([1]; 398.15 K, 101 kPa) was 0.02219 ± 0.00067 mPa·s and the mass density ([1]; 398.15 K, 520 kPa) was 4.329 ± 0.26 kg/m3. For the same compound, the viscosity ([1]; 398.15 K, 520 kPa) was 0.02222 ± 0.00067 mPa·s, the mass density ([1]; 398.15 K, 1003 kPa) was 8.657 ± 0.52 kg/m3 and the viscosity ([1]; 398.15 K, 1003 kPa) was 0.02228 ± 0.00067 mPa·s. The mass density ([1]; 398.15 K, 2000 kPa) was 16.49 ± 0.99 kg/m3, the viscosity ([1]; 398.15 K, 2000 kPa) was 0.0224 ± 0.00068 mPa·s and the mass density ([1]; 398.15 K, 3473 kPa) was 28.94 ± 1.7 kg/m3. The viscosity ([1]; 398.15 K, 3473 kPa) was 0.02259 ± 0.00068 mPa·s, the mass density ([1]; 398.15 K, 4849 kPa) was 40.28 ± 2.4 kg/m3 and the viscosity ([1]; 398.15 K, 4849 kPa) was 0.02278 ± 0.00068 mPa·s. It also gave a mass density ([1]; 423.15 K, 101 kPa) of 0.568 ± 0.035 kg/m3, a viscosity ([1]; 423.15 K, 101 kPa) of 0.02318 ± 0.00069 mPa·s and a mass density ([1]; 423.15 K, 550 kPa) of 4.226 ± 0.25 kg/m3. It also gave a viscosity ([1]; 423.15 K, 550 kPa) of 0.02322 ± 0.00069 mPa·s, a mass density ([1]; 423.15 K, 1032 kPa) of 8.294 ± 0.5 kg/m3 and a viscosity ([1]; 423.15 K, 1032 kPa) of 0.02328 ± 0.0007 mPa·s. For the same compound, the mass density ([1]; 423.15 K, 2012 kPa) was 15.86 ± 0.95 kg/m3, the viscosity ([1]; 423.15 K, 2012 kPa) was 0.02338 ± 0.0007 mPa·s and the mass density ([1]; 423.15 K, 3435 kPa) was 26.9 ± 1.6 kg/m3. For the same compound, the viscosity ([1]; 423.15 K, 3435 kPa) was 0.02354 ± 0.0007 mPa·s, the mass density ([1]; 423.15 K, 4832 kPa) was 37.69 ± 2.3 kg/m3 and the viscosity ([1]; 423.15 K, 4832 kPa) was 0.02373 ± 0.00071 mPa·s.

Compound `N#N` [nitrogen] has a mass density ([2]; 298.15 K, 101 kPa) of 1.178 ± 0.072 kg/m3, a viscosity ([2]; 298.15 K, 101 kPa) of 0.01786 ± 0.00057 mPa·s and a mass density ([2]; 298.15 K, 240 kPa) of 2.833 ± 0.17 kg/m3. For the same compound, the viscosity ([2]; 298.15 K, 240 kPa) was 0.01788 ± 0.00057 mPa·s, the mass density ([2]; 298.15 K, 672 kPa) was 7.705 ± 0.46 kg/m3 and the viscosity ([2]; 298.15 K, 672 kPa) was 0.01794 ± 0.00057 mPa·s. The mass density ([2]; 323.15 K, 101 kPa) was 0.858 ± 0.053 kg/m3, the viscosity ([2]; 323.15 K, 101 kPa) was 0.01901 ± 0.0006 mPa·s and the mass density ([2]; 323.15 K, 290 kPa) was 3.114 ± 0.19 kg/m3. For the same compound, the viscosity ([2]; 323.15 K, 290 kPa) was 0.01904 ± 0.0006 mPa·s, the mass density ([2]; 323.15 K, 466 kPa) was 4.925 ± 0.3 kg/m3 and the viscosity ([2]; 323.15 K, 466 kPa) was 0.01906 ± 0.0006 mPa·s. The mass density ([2]; 323.15 K, 856 kPa) was 9.024 ± 0.54 kg/m3, the viscosity ([2]; 323.15 K, 856 kPa) was 0.01911 ± 0.0006 mPa·s and the mass density ([2]; 348.15 K, 101 kPa) was 0.761 ± 0.047 kg/m3. For the same compound, the viscosity ([2]; 348.15 K, 101 kPa) was 0.0201 ± 0.00062 mPa·s, the mass density ([2]; 348.15 K, 518 kPa) was 5.043 ± 0.3 kg/m3 and the viscosity ([2]; 348.15 K, 518 kPa) was 0.02016 ± 0.00062 mPa·s. It also gave a mass density ([2]; 348.15 K, 1010 kPa) of 9.8 ± 0.59 kg/m3, a viscosity ([2]; 348.15 K, 1010 kPa) of 0.02022 ± 0.00062 mPa·s and a mass density ([2]; 348.15 K, 2028 kPa) of 19.63 ± 1.2 kg/m3. It also gave a viscosity ([2]; 348.15 K, 2028 kPa) of 0.02037 ± 0.00063 mPa·s, a mass density ([2]; 373.15 K, 101 kPa) of 0.633 ± 0.039 kg/m3 and a viscosity ([2]; 373.15 K, 101 kPa) of 0.02116 ± 0.00065 mPa·s. It also gave a mass density ([2]; 373.15 K, 495 kPa) of 4.527 ± 0.27 kg/m3, a viscosity ([2]; 373.15 K, 495 kPa) of 0.02121 ± 0.00065 mPa·s and a mass density ([2]; 373.15 K, 1000 kPa) of 8.832 ± 0.53 kg/m3. It also gave a viscosity ([2]; 373.15 K, 1000 kPa) of 0.02126 ± 0.00065 mPa·s, a mass density ([2]; 373.15 K, 2006 kPa) of 18.01 ± 1.1 kg/m3 and a viscosity ([2]; 373.15 K, 2006 kPa) of 0.0214 ± 0.00065 mPa·s. The mass density ([2]; 373.15 K, 2930 kPa) was 26.15 ± 1.6 kg/m3, the viscosity ([2]; 373.15 K, 2930 kPa) was 0.02152 ± 0.00066 mPa·s and the mass density ([2]; 373.15 K, 3985 kPa) was 35.64 ± 2.1 kg/m3. The viscosity ([2]; 373.15 K, 3985 kPa) was 0.02168 ± 0.00066 mPa·s, the mass density ([2]; 373.15 K, 4966 kPa) was 44.7 ± 2.7 kg/m3 and the viscosity ([2]; 373.15 K, 4966 kPa) was 0.02184 ± 0.00066 mPa·s. It also gave a mass density ([2]; 398.15 K, 101 kPa) of 0.727 ± 0.045 kg/m3, a viscosity ([2]; 398.15 K, 101 kPa) of 0.02219 ± 0.00067 mPa·s and a mass density ([2]; 398.15 K, 520 kPa) of 4.329 ± 0.26 kg/m3. The viscosity ([2]; 398.15 K, 520 kPa) was 0.02222 ± 0.00067 mPa·s, the mass density ([2]; 398.15 K, 1003 kPa) was 8.657 ± 0.52 kg/m3 and the viscosity ([2]; 398.15 K, 1003 kPa) was 0.02228 ± 0.00067 mPa·s. The mass density ([2]; 398.15 K, 2000 kPa) was 16.49 ± 0.99 kg/m3, the viscosity ([2]; 398.15 K, 2000 kPa) was 0.0224 ± 0.00068 mPa·s and the mass density ([2]; 398.15 K, 3473 kPa) was 28.94 ± 1.7 kg/m3. It also gave a viscosity ([2]; 398.15 K, 3473 kPa) of 0.02259 ± 0.00068 mPa·s, a mass density ([2]; 398.15 K, 4849 kPa) of 40.28 ± 2.4 kg/m3 and a viscosity ([2]; 398.15 K, 4849 kPa) of 0.02278 ± 0.00068 mPa·s. It also gave a mass density ([2]; 423.15 K, 101 kPa) of 0.568 ± 0.035 kg/m3, a viscosity ([2]; 423.15 K, 101 kPa) of 0.02318 ± 0.00069 mPa·s and a mass density ([2]; 423.15 K, 550 kPa) of 4.226 ± 0.25 kg/m3. It also gave a viscosity ([2]; 423.15 K, 550 kPa) of 0.02322 ± 0.00069 mPa·s, a mass density ([2]; 423.15 K, 1032 kPa) of 8.294 ± 0.5 kg/m3 and a viscosity ([2]; 423.15 K, 1032 kPa) of 0.02328 ± 0.0007 mPa·s. The mass density ([2]; 423.15 K, 2012 kPa) was 15.86 ± 0.95 kg/m3, the viscosity ([2]; 423.15 K, 2012 kPa) was 0.02338 ± 0.0007 mPa·s and the mass density ([2]; 423.15 K, 3435 kPa) was 26.9 ± 1.6 kg/m3. The viscosity ([2]; 423.15 K, 3435 kPa) was 0.02354 ± 0.0007 mPa·s, the mass density ([2]; 423.15 K, 4832 kPa) was 37.69 ± 2.3 kg/m3 and the viscosity ([2]; 423.15 K, 4832 kPa) was 0.02373 ± 0.00071 mPa·s.
